Several values for one entry are separate records, joined by “and”; a condition that tells them apart may be missing. Equal entries are not always repeated.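 Grown in 96-well plates, cells were treated for 48 hours with each compound at five concentrations. Insufficient inhibition: endpoint recorded as highest concentration tested. GI50 marks 50% less growth. TGI denotes the concentration required for complete inhibition of growth.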
How the values were obtained:
Assay in all cases: growth of human tumour cells (NCI), 48 h
LOX IMVI melanoma = tested on: LOX IMVI melanoma
SK-OV-3 ovarian = tested on: SK-OV-3 ovarian
IGROV1 ovarian = tested on: IGROV1 ovarian
ACHN renal = tested on: ACHN renal
HOP-62 NSCLC = tested on: HOP-62 NSCLC
MDA-MB-231 breast = tested on: MDA-MB-231 breast
HOP-92 NSCLC = tested on: HOP-92 NSCLC
CCRF-CEM leukemia = tested on: CCRF-CEM leukemia

| Structure (SMILES) | TGI (LOX IMVI melanoma) | TGI (SK-OV-3 ovarian) | TGI (IGROV1 ovarian) | TGI (ACHN renal) | TGI (HOP-62 NSCLC) | TGI (MDA-MB-231 breast) | GI50 (LOX IMVI melanoma) | GI50 (SK-OV-3 ovarian) | GI50 (HOP-92 NSCLC) | TGI (HOP-92 NSCLC) | GI50 (IGROV1 ovarian) | GI50 (ACHN renal) | GI50 (HOP-62 NSCLC) | GI50 (MDA-MB-231 breast) | GI50 (CCRF-CEM leukemia) | TGI (CCRF-CEM leukemia) |
| --- | --- | --- | --- | --- | --- | --- | --- | --- | --- | --- | --- | --- | --- | --- | --- | --- |
| COc1ccc(/C=N/NC(=O)O)cc1 | > 100 µM | > 100 µM | > 100 µM | > 100 µM | > 100 µM | > 100 µM | – | – | – | – | – | – | – | – | – | – |
| O=C(Nc1ccc(-n2cc(-c3ccncc3)c(-c3ccc(Cl)c(O)c3)n2)cc1)c1cc(Cl)cc(Cl)c1 | 2.62 µM | > 100 µM | > 100 µM | > 100 µM | 18.8 µM | 4.01 µM | 1.19 µM | > 21.2 µM | 5.57 µM | > 100 µM | > 100 µM | 10.4 µM | 2.49 µM | 0.802 µM | 4.25 µM | > 100 µM |
| NC(N)=NC(N)=NCCc1ccccc1 | > 100 µM | > 100 µM | > 100 µM | > 100 µM | > 100 µM | > 100 µM | > 100 µM | 64.9 µM and > 100 µM | 1.51 µM | > 100 µM | > 100 µM | > 100 µM | 37.4 µM and > 100 µM | > 100 µM | 56.1 µM and > 100 µM | > 100 µM |
| O=c1cccc(C#CCCCCOC2CCCO2)o1 (centres undefined) | > 74.5 µM | > 54.1 µM | > 88.8 µM | 60.5 µM | 18.2 µM | 51.5 µM | 32.6 µM | > 30.4 µM | 2.17 µM | 11.5 µM | 37.2 µM | 27.5 µM | 7.88 µM | 15.4 µM | 7.14 µM | > 79.9 µM |
| COc1cc2cc(C(=O)O)[nH]c2cc1OCc1ccccc1 | > 100 µM | > 100 µM | > 100 µM | > 100 µM | > 100 µM | > 100 µM | > 100 µM | > 100 µM | – | – | > 100 µM | > 100 µM | > 100 µM | > 100 µM | > 100 µM | > 100 µM |
| CC1=CC(C)C(O)C(C)/C=C/C(O)C/C=C(/C)C(=O)CC(O)C(C)\C=C/C=C/C=C\C(=O)NC2=C(O)c3cc(C)c(O)c(c3C(=O)C2=O)C1=O (centres undefined) | > 100 µM | – | > 100 µM | > 100 µM | > 100 µM | > 100 µM | – | – | – | > 100 µM | – | – | – | – | – | > 100 µM |
| c1ccc(-c2cc(-c3cc(-c4ccccn4)[nH]n3)n[nH]2)nc1 | > 100 µM | > 100 µM | > 100 µM | > 100 µM | > 100 µM | > 100 µM | – | – | – | > 100 µM | – | – | – | – | – | – |
| O=C=Nc1ccc(Cc2ccc(N=C=O)cc2)cc1 (tested in a mixture with another compound) | > 25 µg/mL | > 25 µg/mL | > 25 µg/mL | > 25 µg/mL | > 25 µg/mL | > 25 µg/mL | > 25 µg/mL | > 25 µg/mL | > 25 µg/mL | > 25 µg/mL | > 25 µg/mL | > 25 µg/mL | > 25 µg/mL | > 25 µg/mL | > 25 µg/mL | > 25 µg/mL |
| Nc1cc(C(F)F)c(-c2nc(N3[C@@H]4CC[C@H]3COC4)nc(N3[C@@H]4CC[C@H]3COC4)n2)cn1 | > 48 µM | 0.769 µM | 1.54 µM | > 100 µM | 2.36 µM | > 93.3 µM | 0.336 µM | 0.145 µM | 0.0688 µM | 0.722 µM | 0.146 µM | 0.302 µM | 0.161 µM | 0.406 µM | 0.69 µM | > 100 µM |

— PubChem BioAssay (NCI)
